From the OPERA property sets (Mansouri et al. 2018)

SMILES	boiling point	melting point	further results
N=C(N)NCCC[C@H](N)C(=O)O			ready biodegradability: readily biodegradable
CCC(CC)COCCC(=O)O	343 °C	32.5 °C	
Cc1ccc(O)cc1C			ready biodegradability: readily biodegradable
O=[N+]([O-])c1cccc2cccnc12		90 °C	
CC(=O)CC(C)C(C)=O (centres undefined)	196 °C		
CC(=O)Oc1c[nH]c2ccccc12		129 °C	
Cc1ccccc1N1C(=O)c2cc(S(N)(=O)=O)c(Cl)cc2NC1C (centres undefined)		256 °C	
COc1ccc(C=O)cc1	248 °C	0 °C	log10 vapour pressure (mmHg): -1.48; ready biodegradability: readily biodegradable
Clc1cccc(Br)c1	196 °C	-21.5 °C	
CC(C)OC(C)C	68.5 °C	-86.8 °C	log10 Henry constant (atm·m³/mol): -2.59; log10 Koa: 2.66; log10 vapour pressure (mmHg): 2.17; ready biodegradability: not readily biodegradable
CCCOc1ccc(C(=O)O)cc1		145 °C	
CCN(CC)C(=O)c1ccc(O)c(OC)c1		95 °C	
N#CCC(=O)NN		114 °C	
CCC(Br)(CC)C(N)=O		67 °C	
O=[N+]([O-])c1cc(I)c(O)c(I)c1		157 °C	
CCCCOCC(C)O (centres undefined)	172 °C		ready biodegradability: readily biodegradable
Cc1cccc(C#N)c1	213 °C	-23 °C	
O=C(OCC(COC(=O)c1ccccc1)OC(=O)c1ccccc1)c1ccccc1		76 °C	
CCCc1cccc2ccccc12	274 °C	-8.6 °C	
O=[N+]([O-])c1c(O)c(Cl)cc(Cl)c1Cl		92.5 °C	
CCCCCCOC(C)=O	172 °C	-80.9 °C	log10 Henry constant (atm·m³/mol): -3.28; log10 Koa: 4.58; log10 vapour pressure (mmHg): 0.122
CC[C@H]1O[C@]2(CC[C@@H]1C)C[C@@H]1C[C@@H](CC=C(C)C[C@@H](C)C=CC=C3CO[C@@H]4[C@H](O)C(C)=C[C@@H](C(=O)O1)[C@]34O)O2		214 °C	
OC(c1ccccc1)(c1ccccc1)C(O)(c1ccccc1)c1ccccc1		182 °C	
O=C1CCOc2ccccc21		36.5 °C	

SMILES	boiling point	melting point	further results
O=C(ON=C1C=CC(=NOC(=O)c2ccccc2)C=C1)c1ccccc1			ready biodegradability: not readily biodegradable
CCCC#N	118 °C	-112 °C	log10 Henry constant (atm·m³/mol): -4.28; log10 Koa: 3.12; log10 vapour pressure (mmHg): 1.29
CC1=NN(c2cc(Cl)c(S(=O)(=O)O)cc2Cl)C(=O)C1			ready biodegradability: not readily biodegradable; log10 BCF (fish): 1.51
CCCCCCCCCCCCCCCCCC(=O)Cl		23 °C	
CN1c2ccccc2Sc2ccc(CC(=O)O)cc21		144 °C	
N#C[S-].[NH4+]		150 °C	
O=[N+]([O-])c1cccc(Br)c1	256 °C	56 °C	log10 vapour pressure (mmHg): -1.15
O[C@@H]1C[C@H]2CC[C@@H]1C2	176 °C	133 °C	
CC(=O)Nc1ccccc1-c1ccccc1	355 °C	121 °C	
CC12CCC(C(=O)C1=O)C2(C)C (racemic)		199 °C	
CC(C)(O)CCl	128 °C	-20 °C	
COC(=O)CC(C)=O	172 °C		log10 vapour pressure (mmHg): -0.0496; ready biodegradability: readily biodegradable
O=C(O)c1ccnc2ccccc12		254 °C	
CCCC(Cl)CC (centres undefined)	123 °C		
O=C([O-])CF.[Na+]		201 °C	
Cc1onc(-c2ccccc2)c1C(=O)N[C@@H]1C(=O)N2[C@@H]1SC(C)(C)[C@@H]2C(=O)O		188 °C	
O=C(O)c1cc2ccccc2cc1O		222 °C	ready biodegradability: not readily biodegradable; log10 BCF (fish): 0.6
C#CC(C)(CC)OC(N)=O (centres undefined)		55.8 °C	
CCOB(OCC)OCC	120 °C	-84.8 °C	log10 vapour pressure (mmHg): 1.22
c1ccc(Cc2ccccn2)cc1	277 °C	12.5 °C	
Oc1cc(Cl)c(Cl)c(Cl)c1	275 °C	101 °C	log10 Koc (L/kg): 3.56
Clc1cc(Cl)c(Cl)c(-c2cc(Cl)c(Cl)c(Cl)c2Cl)c1			log10 Henry constant (atm·m³/mol): -5.89; log10 biotransformation half-life (days) (fish): 2.51
CN(C)CCc1c[nH]c2ccc(O)cc12		146 °C	
